Columns and labels:
[1] = Ovariectomy-induced bone loss (osteoporosis study); type: in vivo; details: WT OVX mice, treatment from 1 day post-ovariectomy, analysis at 28 days
Description: Representative samples were imaged by micro-computed tomography (μCT, Skyscan) with volume rendering snapshots of the tibia. For the osteoporosis study, representative samples were imaged and presented as volume rendering snapshots of the axial view of the tibial metaphysis region. For bone mineral density (BMD) measurements, the right tibia was removed and fixed in 10% NBF overnight. The tibia were then scanned by dual-energy X-ray absorptiometry (DXA) using a Norland pDEXA densitometer (Norland Medical Systems, White Plains, N.Y.). A region including the primary and secondary spongiosa was used to determine the BMD of the tibia. […] For the osteoporosis study, mice were treated beginning on the day after ovary removal. The treatment regimen for OSI-296 was 200 mg/kg every other day by oral gavage. ASLAN002 was administered at 50 mg/kg every other day by oral gavage. Treatment continued until the time of sacrifice at 28 days. […] To investigate the role of the MSP/RON pathway in bone loss due to post-menopausal osteoporosis, ovariectomies were performed in WT and RonTK−/− mice and bone loss was analyzed by dual-energy X-ray absorptiometry (DXA) and bone histomorphometry 28 days later. […] WT OVX mice were treated with ASLAN002 beginning 1 day post-ovariectomy. Mice were sacrificed 28 days post-ovariectomy for analysis.

[2] = Human plasma BSAP levels, Phase I patients; type: in vivo; details: change compared to baseline
Description: All samples were de-identified and the experiments were approved by the University of Utah Institutional Review Board. Plasma samples were submitted to ARUP for clinical testing of CTX. For BSAP, the Human Bone Panel I capture plate with the Human Alkaline Phosphatase detection kit was utilized (Meso Scale Discovery, Rockville, Md.; […]-2) to measure BSAP levels in undiluted plasma samples per the manufacturer's protocol. ASLAN002 is currently in Phase I testing as an anti-cancer agent (NCT01721148). Regardless of cancer diagnosis, and even in the absence of bone metastasis, RON inhibition might affect normal bone turnover, especially in postmenopausal women due to their high rate of bone loss. […] Shown in FIG. 15A is quantification of the percent change in plasma CTX levels (compared to baseline prior to drug treatment) in blood plasma of patients receiving ASLAN002 in the Phase I clinical trial. […] None of the patients analyzed were treated concurrently with anti-osteoporotic agents. […] Shown in FIG. 15B is quantification of the percent change in BSAP levels (compared to baseline) in blood plasma of patients receiving ASLAN002. […] Note that these patients were not selected based on a diagnosis of bone metastasis; rather, markers of bone turnover in patients with various cancer diagnoses who participated in the Phase I trial of ASLAN002 were simply assessed.

[3] = In vivo bone labeling and histomorphometry; parameters: species or system mice; details: normal, uninjected animals
Method: To label bones, mice were intraperitoneally injected with 20 mg/kg of calcein (Sigma-Aldrich, St. Louis, Mo.) or 30 mg/kg of Alizarin Complexone (Sigma-Aldrich, St. Louis, Mo.) in a 2% sodium bicarbonate solution. Mice 6 to 8 months of age were labeled 8 days and 2 days prior to euthanasia, respectively. Tibia were fixed in 70% ethanol, embedded in methylmethacrylate and sectioned. Bone histomorphometry on H and E sections and bone labeled sections were performed as previously described (Parfitt, et al. Report of the ASBMR Histomorphometry Nomenclature Committee. J. Bone Miner. Res. 1987, 2, 595-610). Analysis of bone volume (BV/TV), and trabecular spacing (Tb. Sp.) were performed on the metaphyseal region of tibia sections stained with H and E. Bone formation rate (BFR) per bone surface (BS) and mineral apposition rate (MAR) of trabeculae were calculated within the metaphyseal region of the tibia. For all histomorphometry, three sections per mouse with 4 to 5 mice per group were analyzed. Analysis was performed using Bioquant Osteo software (Bioquant Image Analysis Corporation, Nashville, Tenn.).

RON = RON (Homo sapiens, UniProt Q04912); details: from the cited IC50 values; cited from earlier work
Chain of RON (Q04912 25-1400): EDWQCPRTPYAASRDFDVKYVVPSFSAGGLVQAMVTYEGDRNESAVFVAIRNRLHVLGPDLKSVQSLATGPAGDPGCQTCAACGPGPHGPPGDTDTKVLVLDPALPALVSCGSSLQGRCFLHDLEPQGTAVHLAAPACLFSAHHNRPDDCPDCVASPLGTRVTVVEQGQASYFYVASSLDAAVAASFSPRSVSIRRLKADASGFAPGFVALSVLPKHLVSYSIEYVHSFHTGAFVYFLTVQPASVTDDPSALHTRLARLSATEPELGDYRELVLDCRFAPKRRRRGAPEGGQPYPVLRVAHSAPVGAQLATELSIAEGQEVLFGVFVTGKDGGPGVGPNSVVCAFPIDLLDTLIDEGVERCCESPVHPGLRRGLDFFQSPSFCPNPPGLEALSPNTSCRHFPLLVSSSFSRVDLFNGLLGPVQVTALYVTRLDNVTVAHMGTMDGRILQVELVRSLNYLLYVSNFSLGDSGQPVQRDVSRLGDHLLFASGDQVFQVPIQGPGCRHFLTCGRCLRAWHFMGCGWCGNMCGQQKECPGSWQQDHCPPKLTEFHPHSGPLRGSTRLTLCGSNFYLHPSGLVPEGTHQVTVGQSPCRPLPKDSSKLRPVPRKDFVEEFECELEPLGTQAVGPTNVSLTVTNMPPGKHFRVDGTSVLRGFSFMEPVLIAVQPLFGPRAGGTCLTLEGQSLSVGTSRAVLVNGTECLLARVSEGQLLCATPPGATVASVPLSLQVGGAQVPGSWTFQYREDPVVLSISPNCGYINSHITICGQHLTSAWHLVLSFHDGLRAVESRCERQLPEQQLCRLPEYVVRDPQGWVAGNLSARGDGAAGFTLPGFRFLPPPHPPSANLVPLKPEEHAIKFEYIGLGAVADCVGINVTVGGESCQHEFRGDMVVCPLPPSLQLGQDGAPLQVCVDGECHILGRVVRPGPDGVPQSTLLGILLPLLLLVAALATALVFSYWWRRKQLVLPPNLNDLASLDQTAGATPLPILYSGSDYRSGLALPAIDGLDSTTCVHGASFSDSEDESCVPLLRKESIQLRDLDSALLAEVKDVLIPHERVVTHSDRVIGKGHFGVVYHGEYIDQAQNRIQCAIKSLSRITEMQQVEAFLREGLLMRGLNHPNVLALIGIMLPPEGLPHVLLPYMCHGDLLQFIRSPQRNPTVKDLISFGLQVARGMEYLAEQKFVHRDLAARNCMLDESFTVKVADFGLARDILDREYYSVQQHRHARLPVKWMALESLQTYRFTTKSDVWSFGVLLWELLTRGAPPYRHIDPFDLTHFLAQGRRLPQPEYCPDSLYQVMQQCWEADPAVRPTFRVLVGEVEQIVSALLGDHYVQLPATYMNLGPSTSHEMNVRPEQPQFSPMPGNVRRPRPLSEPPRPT

CCOc1ccn(-c2ccc(F)cc2)c(=O)c1C(=O)Nc1ccc(Oc2ccnc(N)c2Cl)c(F)c1 [ASLAN002]
bone loss after ovary removal [1]: completely prevented bone loss
plasma bone-specific alkaline phosphatase (BSAP) levels [2]: increased plasma BSAP
bone formation rate per total bone surface [3]: not significant
mineral apposition rate [3]: not significant
selectivity between RON and Met (RON): more selective for RON

From patent US9907791B2, “Ron inhibitors for use in preventing and treating bone loss” (UNIVERSITY OF UTAH RESEARCH FOUNDATION, priority 2014, dated 2018)
